Patent publication US8546338B2, “Self-assembling hydrogels based on dicephalic peptide amphiphiles” (Johnson & Johnson Consumer Companies, Inc., priority 2010, dated 2013)

Key:
[1] = Gelation experiments: inversion test for self-supporting hydrogels; format: physicochemical; conditions: for Gelation (self-supporting gel on inversion), Calcium added: DMEM plus 10 μl of 100 mg/cc calcium chloride solution; for Concentration at which gel forms, Calcium added: DMEM with calcium chloride added; for Gelation (self-supporting gel on inversion), DMEM: DPA solution in water mixed 1:1 with DMEM, no calcium added; for Minimal concentration at which gel formed: in DMEM with calcium added; for Gelation (self-supporting gel on inversion), Water: in water, final concentrations 1, 2 and 4 weight percent tested
Protocol: (§1) Inversion tests were performed to determine qualitatively under which conditions the various DPAs formed self-supporting hydrogels. The various types of DPAs were tested by dissolving them in ultrapure water (>18 MΩ resistivity) at double the desired final concentration followed by mixing in a 1:1 ratio with different liquid mediums. Gelation was deemed to have occurred if the gel supported its own weight upon inverting the vial (FIG. 3A and FIG. 3B). Gelation was tested at final concentrations of 1, 2 and 4 weight percent. We tested phosphate buffered saline (PBS), and Dulbecco's modified eagle media (DMEM) as liquid medium. Typical scale is 100 μl each of DPA solution in water and mixing medium but other scales have been tested. Finally, if no spontaneous gelation occurs, 10 μl of 100 mg/cc calcium chloride solution was added to induce gelation.

[2] = Oscillating rheology, time sweep (kinetics of formation); format: physicochemical
Protocol: Oscillating rheology by the parallel plates method (radius=25 mm) was performed on 400 μl gels to assess the mechanical strengths of gels. Time sweeps were performed to evaluate kinetics of formation at a constant strain rate of 1% and frequency of 1 rad/s. Strain sweeps were performed ranging from 1-100% strain in increments of 2% at a constant frequency of 1 rad/s. Cross-over of G′ and G″ was used to determine the gel point and point of breakdown. Time sweeps were initiated immediately after mixing the solutions that lead to DPA hydrogel formation. In the strain sweeps, the gels were allowed to form on the plate for 30 minutes before the measurement is initiated.
The gelation process was initiated on the plate at 25° C. by the addition of 10 μl of 100 mg/ml calcium chloride solution to a solution of the DPA in DMEM.

[3] = Cell viability of encapsulated hUTCs in DPA gels (Live/Dead); format: cell-based, human; conditions: human, human umbilical cord cells (hUTCs) encapsulated in DPA gel; 2% DPA, 100,000 cells, calcium chloride added, after 7 days of culture, Live/Dead; read-out: Viability of hUTC cells in the gels
Protocol: The viability and proliferation of cells in the gels was evaluated by encapsulating human umbilical cord cells (hUTCs) in the gels. hUTCs were isolated as described in U.S. Pat. No. 7,510,873. Cells were thawed from storage and cultured for four days in Hayflick media. After four days, the cells were trypsinized and counted by the Guava ViaCount methodology (Millipore, Billerica, Mass.). Cells were re-suspended in Hayflick media at a density of 1,000,000 cells/ml. Encapsulation of the cells in the gels was achieved by adding 100 μl cell suspension to 100 μl of a 4 wt % DPA solution in ultrapure in a 24 well plate, resulting in a final DPA concentration of 2%. The gels were incubated for 1 h at 37° C., 5% CO2 after which 1000 μl media was added on top of the gel. Cells were incubated at 37° C., 5% CO2. Every 3-4 days of culture, 500 μl media was replaced.
After mixing of the cell suspension and 4% DPA solution by pipetting up and down, the protocol described above was modified by adding 10 μl 100 mg/ml calcium chloride solution upon which gelation occurred. Final concentrations are 2% in DPA and 100,000 cells. Control gels without cells were prepared by using pure media and additional cell only and cells with calcium chloride controls were prepared as standard 2D culture. After 7 days of culture, the gels were assayed with Live/Dead assay for cell viability and Invitrogen CyQuant GR assay for cell proliferation (Invitrogen, Carlsbad, Calif.). The Live/Dead was performed as described in the provided protocol but at half the […] concentration to reduce non-specific fluorescence due to dye absorption. […] The cells in the gels contained a lot of viable cells (FIG. 410). No dead cells could be observed in the gels. Therefore, the viability of these cells in the gels is very high (>95%).
In a second experiment, 100,000 hUTC cells were encapsulated in 2 wt % Gly-Phe-Gly-Phe-Gly-Phe-Gly-Gln-Gln-Ser (SEQ ID NO: 8) DPA gels. The cells were cultured for 3 weeks and cells were assessed after 1, 2 and 3 weeks with Live/Dead.

Sprague-Dawley rats = assay: Biocompatibility study, gel injected into intra-gluteal muscle pocket; format: in vivo; conditions: rat; for Tissue response (histology): harvest at 3, 7 and 28 days
Protocol: A biocompatibility study was performed on Gly-Val-Ala-Val-Ala-Val-Ala-Glu-Gly-Glu (SEQ ID NO: 4), Gly-Phe-Gly-Phe-Gly-Phe-Gly-Glu-Gly-Glu (SEQ ID NO: 5) and Gly-Phe-Gly-Phe-Gly-Phe-Gly-Gln-Gln-Ser (SEQ ID NO: 8) DPAs. Lyophilized DPA powders were e-beam sterilized in 1.5 cc polypropylene cryovials at 15 KGy. Gels were pre-formed in 1 cc syringes by mixing a 4 wt % DPA solution in water for injection in a 1:1 ratio with DMEM followed by immediate aspiration into the syringe. In the case of the formulations with the Glu-Gly-Glu (SEQ ID NO: 27) sequence in the solubility enhancing region, 10 μl of a sterile 100 mg/cc calcium chloride solution was mixed in before aspiration into the syringe. An intra-gluteal muscle pocket was created in Sprague-Dawley rats after which 100 μl of gel was injected using a catheter fitted to the syringe. Subsequently, the pocket was closed with polyglactin 910 sutures sold under the tradename VICRYL (Ethicon, Somerville, N.J.). Tissue was harvested at 3, 7 and 28 days after implantation.

[4] = Dissolution of DPA in ultrapure water; format: physicochemical; conditions: ultrapure water (>18 MΩ resistivity)
Protocol: as §1

[5] = 2 wt % DPA in DMEM, calcium chloride added, 25° C.

Row | Structure (SMILES) | Gelation (self-supporting gel on inversion), Calcium added [1] | Concentration at which gel forms, Calcium added [1] [wt %] | Gelation (self-supporting gel on inversion), DMEM [1] | Minimal concentration at which gel formed [1] [weight percent] | Gelation (self-supporting gel on inversion), Water [1] | G′ after 10 minutes ([2]; 1 wt % DPA in DMEM, calcium chloride added, 25° C.) [Pa] | Estimated final strength (extrapolation of the curve) ([2]; 2 wt % DPA in DMEM, calcium chloride added) | G′ (strength) after 1 hour [2, 5] | G′ after 10 minutes [2, 5] | G′ after temperature raised to 37° C. ([2]; 2 wt % DPA, after 1 hour, temperature raised from 25° C. to 37° C.) | viability at 168 h [3] [%] | Gross observations (Sprague-Dawley rats; in vivo) | viability at 168 h, 2 % [3] [%] | Gross observations (Sprague-Dawley rats; 100 μl gel, intra-gluteal muscle pocket, day 3, no longer observed at other time points) | Tissue response (histology) (Sprague-Dawley rats; 100 μl gel, intra-gluteal muscle pocket) | Tissue response (histology) (Sprague-Dawley rats; 100 μl gel, intra-gluteal muscle pocket, listed as Val-Ala-Val-Ala-Val-Ala-Glu-Gly-Glu (SEQ ID NO: 39)) | Solubility in ultrapure water [4]
1 | CCCCCCCCCCCCCCCC(=O)NC(C(=O)NCC(=O)N[C@@H](Cc1ccccc1)C(=O)NCC(=O)N[C@@H](Cc1ccccc1)C(=O)NCC(=O)N[C@@H](Cc1ccccc1)C(=O)NCC(=O)N[C@@H](CCC(=O)O)C(=O)NCC(=O)N[C@@H](CCC(=O)O)C(=O)O)C(=O)NCC(=O)N[C@@H](Cc1ccccc1)C(=O)NCC(=O)N[C@@H](Cc1ccccc1)C(=O)NCC(=O)N[C@@H](Cc1ccccc1)C(=O)NCC(=O)N[C@@H](CCC(=O)O)C(=O)NCC(=O)N[C@@H](CCC(=O)O)C(=O)O [Gly-Phe-Gly-Phe-Gly-Phe-Gly-Glu-Gly-Glu] | Yes | 1 | No | 1 | No | 300 | ~10,000 Pa | 7,200 Pa | 4,000 Pa | 5,000 Pa | > 95 | some fluid buildup at day 3 |  |  |  |  | 
2 | CCCCCCCCCCCCCCCC(=O)NC(C(=O)NCC(=O)N[C@H](C(=O)N[C@@H](C)C(=O)N[C@H](C(=O)N[C@@H](C)C(=O)N[C@H](C(=O)N[C@@H](C)C(=O)N[C@@H](CCC(=O)O)C(=O)NCC(=O)N[C@@H](CCC(=O)O)C(=O)O)C(C)C)C(C)C)C(C)C)C(=O)NCC(=O)N[C@H](C(=O)N[C@@H](C)C(=O)N[C@H](C(=O)N[C@@H](C)C(=O)N[C@H](C(=O)N[C@@H](C)C(=O)N[C@@H](CCC(=O)O)C(=O)NCC(=O)N[C@@H](CCC(=O)O)C(=O)O)C(C)C)C(C)C)C(C)C [Gly-Val-Ala-Val-Ala-Val-Ala-Glu-Gly-Glu] | Yes | 2 | No | 2 | No |  |  |  | 140 Pa |  |  |  | > 95 | some fluid buildup at day 3 | some necrosis of the underlying tissue layer was observed | necrosis of the underlying muscle tissue | 
3 | CCCCCCCCCCCCCCCC(=O)NC(C(=O)N[C@@H](Cc1ccccc1)C(=O)NCC(=O)N[C@@H](Cc1ccccc1)C(=O)NCC(=O)N[C@@H](Cc1ccccc1)C(=O)NCC(=O)N[C@@H](CCCCN)C(=O)N[C@@H](C)C(=O)O)C(=O)N[C@@H](Cc1ccccc1)C(=O)NCC(=O)N[C@@H](Cc1ccccc1)C(=O)NCC(=O)N[C@@H](Cc1ccccc1)C(=O)NCC(=O)N[C@@H](CCCCN)C(=O)N[C@@H](C)C(=O)O [Phe-Gly-Phe-Gly-Phe-Gly-Lys-Ala] |  |  |  |  |  |  |  |  |  |  |  |  |  |  |  |  | could not be solubilized
4 | CCCCCCCCCCCCCCCC(=O)NC(C(=O)N[C@H](C(=O)N[C@@H](C)C(=O)N[C@H](C(=O)N[C@@H](C)C(=O)N[C@H](C(=O)N[C@@H](C)C(=O)N[C@@H](CCCCN)C(=O)N[C@@H](C)C(=O)O)C(C)C)C(C)C)C(C)C)C(=O)N[C@H](C(=O)N[C@@H](C)C(=O)N[C@H](C(=O)N[C@@H](C)C(=O)N[C@H](C(=O)N[C@@H](C)C(=O)N[C@@H](CCCCN)C(=O)N[C@@H](C)C(=O)O)C(C)C)C(C)C)C(C)C [Val-Ala-Val-Ala-Val-Ala-Lys-Ala] |  |  |  |  |  |  |  |  |  |  |  |  |  |  |  |  | could not be solubilized
